Peptide text beside a SMILES is read from it. * marks the point of attachment. Cbz = O=C(OCc1ccccc1)*
How the values were obtained:
[1] = system: MDM2 in LS8817 and LS141 cells; assay: MDM2 level after proteasome inhibition in PD0332991 treated cells; format: cell-based, human; conditions: 10 μM MG132 added to cells treated with PD0332991 for two days
WD/DDLS cell lines = assay: annexin V staining (apoptosis); format: cell-based, human; conditions: nutlin-3a, forty-eight hours; LS8817, LS0082, LS8107 and LS7785-1
Description: FIG. 1A-C. […] Mean percentage of BrdU incorporation or annexin V+/7-AAD− cells was calculated from three or more independent experiments. Error bars represent standard deviation (*p<0.05).
(§1) FIG. 13A-B. Nutlin-3a induces apoptosis in all the liposarcoma cell lines. The indicated cell lines were treated with nutlin-3a or vehicle control and extracts were prepared for immunoblotting (A) or annexin V staining (B) forty-eight hours after treatment. Mean percentage of annexin V+/7-AAD− cells was calculated from three or more independent experiments. Error bars represent standard deviation (*p<0.05).
Cells were stained with BrdU (20 μM for two hours) or annexin V as previously described (22, 48). […] was determined by staining with propidium iodine and FACS analyses (49).

[2] = system: MDM2 and p21 in LS8817, LS0082, LS8107 and LS7785-1 cells; assay: p53 targets by immunoblot after nutlin-3a; format: cell-based, human; conditions: forty-eight hours; all of the cell lines
Description: as §1, with “The” for “FIG. 13A-B. Nutlin-3a induces apoptosis in all the liposarcoma cell lines. The”

WD/DDLS cells = conditions: Ambrosini et al., 2007, Singer et al.; cited from earlier work
LS8817 cells = assay: doxorubicin effect on LS8817 cells; format: cell-based, human

CC(C)C[C@@H](C=O)NC(=O)[C@H](CC(C)C)NC(=O)[C@H](CC(C)C)NC(=O)OCc1ccccc1 [MG132] (Cbz-Leu-Leu-Leu-aldehyde)
MDM2 level after addition of MG132 [1]: re-accumulation

COc1ccc(C2=N[C@@H](c3ccc(Cl)cc3)[C@@H](c3ccc(Cl)cc3)N2C(=O)N2CCNC(=O)C2)c(OC(C)C)c1 [nutlin-3a]
percentage of annexin V stained apoptotic cells (WD/DDLS cell lines): increased | p53 targets, MDM2 and p21 [2]: increased | cell response to nutlin-3a (WD/DDLS cells): growth arrest, p53 accumulation and apoptosis

COc1cccc2c1C(=O)c1c(O)c3c(c(O)c1C2=O)C[C@@](O)(C(=O)CO)C[C@@H]3O[C@H]1C[C@H](N)[C@H](O)[C@H](C)O1 [doxorubicin]
MDM2 levels (LS8817 cells): without a reduction | p53 (LS8817 cells): accumulation | senescence (LS8817 cells): entry of the LS8817 cells into senescence

Reference: patent US9889135B2, “Companion diagnostic for CDK4 inhibitors” (Memorial Sloan-Kettering Cancer Center, priority 2013, dated 2018)
